In data set [1] the test system is bicistronic HCV replicon (replicon RNA, GenBank Accession No. AJ242654). As to the kind of experiment: HCV Replicon Assay. The data set is classed as cell-based. The settings on record: Hepatitis C virus, 72 h, read-out: Replicon IC50.

As usually defined, the melting point is the temperature, or range, at which the solid turns liquid. The IC50 is the midpoint of a concentration-inhibition curve.

Regarding `CC(C)(C)S(=O)(=O)Nc1ccc(-c2c(C(N)=O)c3c(F)cc(C4CC4)cc3n2C2CCCCC2)cn1` [compound 1088, 2-{6-[(tert-butylsulfonyl)amino]pyridin-3-yl}-1-cyclohexyl-6-cyclopropyl-4-fluoro-1H-indole-3-carboxamide], the melting point lay in the range of 290 to 294 °C. Also, in data set [1], the IC50 is less than 500 nM.
`CC(C)(C)S(=O)(=O)Nc1ccc(-c2c(C#N)c3c(F)cc(C4CC4)cc3n2C2CCCCC2)nc1` [compound 1092, N-[6-(3-cyano-1-cyclohexyl-6-cyclopropyl-4-fluoro-1H-indol-2-yl)pyridin-3-yl]-2-methylpropane-2-sulfonamide] had a melting point of 252 to 255 °C. Besides, the IC50 in data set [1] was less than 500 nM.
As to `Cc1nc(NS(=O)(=O)C(C)(C)C)ccc1-c1c(C(N)=O)c2cc(F)c(OC(F)F)cc2n1C(C)C` [compound 1095, 2-{6-[(tert-butylsulfonyl)amino]-2-methylpyridin-3-yl}-6-(difluoromethoxy)-5-fluoro-1-(propan-2-yl)-1H-indole-3-carboxamide], the melting point was in the range of 234 to 235 °C. Further, the IC50 in data set [1] was 500 to 2000 nM.
Consider `Cc1nc(NS(=O)(=O)C(C)(C)C)ccc1-c1c(C(N)=O)c2cc(F)c(OC(F)F)cc2n1[C@@H](C)C1CC1` [compound 1096, 2-{6-[(tert-butylsulfonyl)amino]-2-methylpyridin-3-yl}-1-[(1S)-1-cyclopropylethyl]-6-(difluoromethoxy)-5-fluoro-1H-indole-3-carboxamide], for which the melting point lay within 147 to 151 °C. For the same compound, the IC50 in data set [1] is less than 500 nM.
Turning to `CC(C)(C)S(=O)(=O)Nc1ccc(-c2c(C(N)=O)c3c(F)cc(C4CC4)cc3n2C2CCCCC2)nc1` [compound 1097, 2-{5-[(tert-butylsulfonyl)amino]pyridin-2-yl}-1-cyclohexyl-6-cyclopropyl-4-fluoro-1H-indole-3-carboxamide], the melting point was 275 to 285 °C (dec.). Also, the IC50 in data set [1] is less than 500 nM.
On the same counts, the results for `CC(C)(NS(=O)(=O)c1ccc(-c2c(C#N)c3c(F)cc(C4CC4)cc3n2-c2ncccn2)nc1)C(F)(F)F` [compound 1098, 6-[3-cyano-6-cyclopropyl-4-fluoro-1-(pyrimidin-2-yl)-1H-indol-2-yl]-N-(1,1,1-trifluoro-2-methylpropan-2-yl)pyridine-3-sulfonamide] are 198 to 200 °C and 500 to 2000 nM.
The compound `CC(C)(C)S(=O)(=O)Nc1ccc(-c2c(C(N)=O)c3cc(F)c(C4CC4)cc3n2-c2ccccc2)cn1` [compound 1100, 2-{6-[(tert-butylsulfonyl)amino]pyridin-3-yl}-6-cyclopropyl-5-fluoro-1-phenyl-1H-indole-3-carboxamide] had a melting point of 272 to 274 °C. For the same compound, the half-inhibitory concentration (IC50) in data set [1] was less than 500 nM.
As to `CC(C)(C)S(=O)(=O)Nc1ccc(-c2c(C#N)c3cc(F)c(C4CC4)cc3n2-c2ccccc2)cn1` [compound 1101, N-[5-(3-cyano-6-cyclopropyl-5-fluoro-1-phenyl-1H-indol-2-yl)pyridin-2-yl]-2-methylpropane-2-sulfonamide], the melting point was 249 to 250 °C. The IC50 in data set [1] lay within 500 to 2000 nM.
For `CC(C)(C)S(=O)(=O)Nc1ccc(-c2c(C(N)=O)c3cc(F)c(OCF)cc3n2C2CCCCC2)cn1` [compound 1102, 2-{6-[(tert-butylsulfonyl)amino]pyridin-3-yl}-1-cyclohexyl-5-fluoro-6-(fluoromethoxy)-1H-indole-3-carboxamide], the melting point is 274 to 276 °C. For the same compound, the IC50 in data set [1] is less than 500 nM.
Take `CCc1cc2c(cc1F)c(C(=O)O)c(-c1ccc(NS(=O)(=O)C(C)(C)C)nc1)n2[C@H](C)C1CC1` [compound 1103, 2-{6-[(tert-butylsulfonyl)amino]pyridin-3-yl}-1-[(1R)-1-cyclopropylethyl]-6-ethyl-5-fluoro-1H-indole-3-carboxylic acid]: the melting point is 165 °C (dec.). In data set [1], the half-maximal inhibitory concentration (IC50) lay within 500 to 2000 nM.
On the same counts, the results for `CCc1cc2c(cc1F)c(C(N)=O)c(-c1ccc(NS(=O)(=O)C(C)(C)C)nc1)n2[C@H](C)C1CC1` [compound 1104, 2-{6-[(tert-butylsulfonyl)amino]pyridin-3-yl}-1-[(1R)-1-cyclopropylethyl]-6-ethyl-5-fluoro-1H-indole-3-carboxamide] are 255.5 to 259 °C and less than 500 nM.
In turn, `CC(C)(C)S(=O)(=O)Nc1ccc(-c2c(C(N)=O)c3c(F)cc(C4CC4)cc3n2-c2ccc(F)cc2)cn1` [compound 1105, 2-{6-[(tert-butylsulfonyl)amino]pyridin-3-yl}-6-cyclopropyl-4-fluoro-1-(4-fluorophenyl)-1H-indole-3-carboxamide] returned a melting point of 290 to 295 °C. Also, the IC50 in data set [1] is less than 500 nM.
In turn, `CCc1cc(F)c2c(C(N)=O)c(-c3ccc(NS(=O)(=O)C(C)(C)C)nc3)n(-c3ccc(F)cc3)c2c1` [compound 1106, 2-{6-[(tert-butylsulfonyl)amino]pyridin-3-yl}-6-ethyl-4-fluoro-1-(4-fluorophenyl)-1H-indole-3-carboxamide] showed a melting point of 280 to 288 °C. Moreover, the IC50 in data set [1] was less than 500 nM.
With `Cc1cc2c(cc1F)c(C#N)c(-c1ccc(S(=O)(=O)NC(C)(C)C)cn1)n2-c1ccccc1` [compound 1108, N-tert-butyl-6-(3-cyano-5-fluoro-6-methyl-1-phenyl-1H-indol-2-yl)pyridine-3-sulfonamide], the melting point was in the range of 200.6 to 202.4 °C. Also, the IC50 in data set [1] was less than 500 nM.
In turn, `CCc1cc2c(cc1F)c(C(N)=O)c(-c1ccc(S(=O)(=O)NC(C)(C)C)cn1)n2-c1ccccc1` [compound 1109, 2-[5-(tert-butylsulfamoyl)pyridin-2-yl]-6-ethyl-5-fluoro-1-phenyl-1H-indole-3-carboxamide] came in with a melting point of 237.9 to 238.9 °C. The half-maximal inhibitory concentration (IC50) in data set [1] is less than 500 nM.
`CCc1cc(F)c2c(C(N)=O)c(-c3ccc(NS(=O)(=O)C(C)(C)C)cn3)n(C3CCC3)c2c1` [compound 1110, 2-{5-[(tert-butylsulfonyl)amino]pyridin-2-yl}-1-cyclobutyl-6-ethyl-4-fluoro-1H-indole-3-carboxamide] yielded a melting point of 259 to 263 °C. For the same compound, the IC50 in data set [1] was less than 500 nM.
Take `CCc1cc(F)c2c(C(N)=O)c(-c3ccc(NS(=O)(=O)C(C)(C)C)nc3)n(-c3ccccc3)c2c1` [compound 1111, 2-{6-[(tert-butylsulfonyl)amino]pyridin-3-yl}-6-ethyl-4-fluoro-1-phenyl-1H-indole-3-carboxamide]: the melting point is 288 to 294 °C. For the same compound, the IC50 in data set [1] was less than 500 nM.
For `[2H]C([2H])([2H])c1cc2c(cc1F)c(C#N)c(-c1ccc(S(=O)(=O)N[C@@]([2H])(C)C(F)(F)F)cn1)n2C1CCC1` [compound 1114, 6-[3-cyano-1-cyclobutyl-5-fluoro-6-(1,1,1-trideuterium)methyl-1H-indol-2-yl]-N-[(2S)-1,1,1-trifluoro(2-deuterium)propan-2-yl]pyridine-3-sulfonamide] the same measures were 213 to 215 °C and less than 500 nM.
For `Cc1cc2c(cc1F)c(C(N)=O)c(-c1ccc(S(=O)(=O)NC(C)(C)C)cn1)n2C1CCCCC1` [compound 1115, 2-[5-(tert-butylsulfamoyl)pyridin-2-yl]-1-cyclohexyl-5-fluoro-6-methyl-1H-indole-3-carboxamide], the melting point lay in the range of 274.5 to 275.6 °C. For the same compound, in data set [1], the IC50 was less than 500 nM.
For `Cc1cc2c(cc1F)c(C(N)=O)c(-c1ccc(S(=O)(=O)NC(C)(C)C)cn1)n2-c1ccccc1` [compound 1116, 2-[5-(tert-butylsulfamoyl)pyridin-2-yl]-5-fluoro-6-methyl-1-phenyl-1H-indole-3-carboxamide] the same measures were 241.2 to 242.5 °C and less than 500 nM.
On to `CC(C)(C)NS(=O)(=O)c1ccc(-c2c(C#N)c3cc(F)c(C4CC4)cc3n2-c2ccccc2)nc1` [compound 1117, N-tert-butyl-6-(3-cyano-6-cyclopropyl-5-fluoro-1-phenyl-1H-indol-2-yl)pyridine-3-sulfonamide], for which the melting point is 219.2 to 220.8 °C. The IC50 in data set [1] was less than 500 nM.
In turn, `CCc1cc(F)c2c(C(N)=O)c(-c3ccc(NS(=O)(=O)C(C)(C)C)nc3)n(C3CCC3)c2c1` [compound 1118, 2-{6-[(tert-butylsulfonyl)amino]pyridin-3-yl}-1-cyclobutyl-6-ethyl-4-fluoro-1H-indole-3-carboxamide] displayed a melting point of 263 to 268 °C. In data set [1], the half-inhibitory concentration (IC50) was less than 500 nM.
